Test results as given in patent publication US6506788B1, “N-linked urea or carbamate of heterocyclic thioesters for vision and memory disorders” (GPI Nil Holdings, Inc., priority 1998, dated 2003).
Read-outs that look alike come from different tables or passages of the source. Marks after values point to notes of the source that are not given here.

Key:
FKBP12 = FKBP12 (Homo sapiens, UniProt P62942); test: Ki test procedure: inhibition of peptidyl-prolyl isomerase (rotamase) activity, chymotrypsin-coupled assay; format: biochemical
Sequence of FKBP12 (P62942 whole entry, species assumed): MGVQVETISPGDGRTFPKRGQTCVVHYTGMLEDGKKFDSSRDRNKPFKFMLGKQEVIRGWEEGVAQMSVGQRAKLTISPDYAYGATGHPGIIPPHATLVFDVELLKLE
Excerpt: The inhibition of the prolyl peptidyl cis-trans isomerase activity of FKBP may be measured as an indicator of this affinity.
Inhibition of the peptidyl-prolyl isomerase (rotamase) activity of the compounds used in the inventive methods and pharmaceutical compositions can be evaluated by known methods described in the literature (Harding et al., Nature, 1989, 341:758-760; Holt et al. J. Am. Chem. Soc., 115:9923-9938).
The cis-trans isomerization of an alanine-proline bond in a model substrate, N-succinyl-Ala-Ala-Pro-Phe-p-nitroanilide, is monitored spectrophotometrically in a chymotrypsin-coupled assay, which releases para-nitroanilide from the trans form of the substrate. The inhibition of this reaction caused by the addition of different concentrations of inhibitor is determined, and the data is analyzed as a change in first-order rate constant as a function of inhibitor concentration to yield the apparent Ki values.
In a plastic cuvette are added […] of ice cold assay buffer (25 mM HEPES, pH 7.8, 100 mM NaCl), 10 mL of FKBP (2.5 mM in 10 mM Tris-Cl pH 7.5, 100 mM NaCl, 1 mM dithiothreitol), 25 mL of chymotrypsin (50 mg/ml in 1 mM HCl) and […] of test compound at various concentrations in dimethyl sulfoxide. The reaction is initiated by the addition of 5 mL of substrate (succinyl-Ala-Phe-Pro-Phe-para-nitroanilide, 5 mg/mL in 2.35 mM LiCl in trifluoroethanol).
The absorbance at 390 nm versus time is monitored for 90 seconds using a spectrophotometer and the rate constants are determined from the absorbance versus time data files.

[1] = test system: retinal ganglion cell axons; test: Protection of retinal ganglion cell axons from degeneration following optic nerve transection (Table V); format: in vivo; conditions: ± SEM
Excerpt: Efficacy of representative compounds from different immunophilin ligand series in protecting retinal ganglion cell axons from degeneration following optic nerve transection is set forth in Table V.
Efficacy of representative compounds from different immunophilin ligand series in protecting retinal ganglion cell axons from degeneration following optic nerve transection

[2] = Clearance (Table V comments, no method given); format: in vitro ADME
[3] = test system: retinal ganglion cells and optic nerve axons; test: In vivo retinal ganglion cell and optic nerve axon tests: optic nerve transection, 14 or 28 day treatment, sacrifice at 90 days; design: species or system Sprague Dawley rats; conditions: for ON head area (% sham) / ON Axon density / pattern of myelin degeneration, proximal stump (myelin basic protein immunohistochemistry) / pattern of myelin labeling and degenerating myelin figures, distal stump: 90 days after transection; for ON Axon density: RT97 labeled axons in 200 μm × 200 μm region; for increased ON axon density: adjusted for optic nerve diameter; for Distat optic nerve: shrinkage of cross sectional area: cross sectional area compared to sham control
Excerpt: All eyes and optic nerves stumps were removed.

[4] = test system: retinal ganglion cells and optic nerve; test: Retinal ischemia (intraocular pressure raised above arterial blood pressure), examined 28 days later; format: in vivo, rats; conditions: toluidine blue staining; 28 days after 1 hour retinal ischemia
Excerpt: Retinal ganglion cells were retrogradely labeled in adult rats by bilateral injection of fluorogold in their lateral geniculate nuclei. Labeled ganglion cells in the normal rat retina appear as white profiles against the dark background (FIG. 1A). Complete retinal ischemia was produced by infusing normal saline solution into the retinal vitreous cavity of each eye until the intraocular pressure exceeded arterial blood pressure. 28 days after the ischemic episode extensive degeneration of retinal ganglion cell was evidenced by massive reduction in the density of fluorogold labeled cells (FIG. 1B).
Optic nerves from vehicle treated cases examined 28 days after a 1 hour retinal ischemic episode are characterized by a decreased density of optic nerve axons and the appearance of numerous degenerating myelin figures (bright white filled circles).

aged mice = test: Morris watermaze spatial learning and memory in aged rodents; format: in vivo, C57BL/6N-Nia mice; conditions: 10 mg/kg daily
Excerpt: The Morris watermaze is widely used for assessing spatial memory formation and retention in experimental animals. The test depends on the animal's ability to utilize spatial visual information in order to locate a submerged escape platform in a water tank. It is important that the tank itself be as devoid of specific visual features as possible—thus, it is always circular in shape, the sides are kept smooth and in uniform dull colors, and the water is rendered opaque with nontoxic watercolor pigment or powdered milk. This is to ensure that the animal navigates only by the use of more distant visual cues, or by the use of intra-maze cues specifically provided by the experimenter. The animals' path, speed, and swim time are tracked with a ceiling camera for later computerized analysis. Over the course of several successive trials, spatial learning can therefore be defined as a drop of distance swum, or time elapsed, from placement in the tank until escape onto the invisible platform. The procedure involved using three-month old (young) and 18-19 month old male C57BL/6N-Nia (aged) mice which habituated to the well known and conventional Morris watermaze during a 4 trials/day, 3-4 day visible platform training phase. […] Swim Distances (cm) were analyzed in a 7×5 ANOVA including Groups and Blocks (1-5) as factors in the analysis, treating Blocks as a repeated measure.

retina = test: Streptozotocin induced diabetes: retinal neovascularization and neuron loss; format: in vivo; conditions: 28 day treatment beginning 8 weeks after onset of diabetes
retinal ganglion cells = test: Example 16: optic nerve transection, 28 days treatment, sacrifice at 90 days; format: in vivo, Sprague Dawley rats; conditions: 10 mg/kg/day s.c. for 28 days; 90 days after transection
Excerpt: Transection of the mammalian optic nerve results in a brief period of abortive regeneration, but the majority of axotomized neurons die and the axons from many persisting ganglion cells die back beyond the optic nerve head.

[5] = apparent Ki, rotamase inhibition, read-out: Ki
[6] = Table V comments, read-out: Ki rotomase

O=C(SCCCc1cccnc1)C1CCCN1C(=O)NC1CCCCC1 (stereo not shown) [Compound 6]
Ki (FKBP12; [5]): 201 to 500 nM

CCC(C)(C)NC(=O)N1CCCC1C(=O)SCCc1ccccc1 (stereo not shown) [Compound 4]
Ki (FKBP12; [5]): 51 to 200 nM

COc1ccc(CCCSC(=O)C2CCCCN2C(=O)NC2CCCCC2)cc1 (stereo not shown) [Compound 16]
Ki (FKBP12; [5]): 51 to 200 nM

CCC(C)(C)C(=O)C(=O)N1CCCC[C@H]1C(=O)O [G]
RT97-RGC axon density 11 days after ON transection (36 ON axon rescued) [1]: 34.0% ±4.8% SEM

CCC(C)(C)C(=O)C(=O)N1CCS[C@H]1C(=O)OCCCc1cccnc1 [F]
RT97-RGC axon density 11 days after ON transection (36 ON axon rescued) [1]: 55.1% ±5.9% SEM

CCC(C)(C)C(=O)C(=O)N1CCC[C@H]1C(=O)CCCCc1cccnc1 [J]
RT97-RGC axon density 11 days after ON transection (36 ON axon rescued) [1]: 15.8% ±4.8% SEM

O=C(OCCCc1cccnc1)[C@@H]1CCCN1C(=S)NC1CCCCC1 [I]
RT97-RGC axon density 11 days after ON transection (36 ON axon rescued) [1]: 23.8% ±5.3 SEM

3-(3-pyridyl)-1-propyl (2s)-1-(3,3-dimethyl-1,2-dioxopentyl)-2-pyrrolidinecarboxylate [GPI 1046]
RT97-RGC axon density 11 days after ON transection (36 ON axon rescued) [1]: 60.5% ±3.9 SEM
Ki (FKBP12; [6]): 7.5 nM
Clearance [2]: 63.8 µL/min

CCC(C)(C)C(=O)C(=O)N1CCCC1C(=O)O (stereo not shown) [L]
RT97-RGC axon density 11 days after ON transection (36 ON axon rescued) [1]: 7.8% ±3.0% SEM
Clearance [2]: 5.2 µL/min

CCC(C)(C)NC(=O)N1CCC[C@H]1C(=O)SCCCc1cccnc1 [Compound 2]
Ki (FKBP12; [5]): 51 to 200 nM

O=C(SCCCc1ccccc1)C1CCCN1C(=O)NC12CC3CC(CC(C3)C1)C2 (stereo not shown) [B]
RT97-RGC axon density 11 days after ON transection (36 ON axon rescued) [1]: 100.0% ±5.2% SEM
Ki (FKBP12; [6]): 149 nM

CCC(C)(C)C(=O)C(=O)N1CCC[C@H]1C(=O)OCCCc1cccnc1 [GPI 1046, 3-(3-pyridyl)-1-propyl (2s)-1-(3,3-dimethyl-1,2-dioxopentyl)-2-pyrrolidinecarboxylate]
ON head area (% sham) ([3]; ONT/14 days treatment): 76%
ON Axon density ([3]; ONT/14 days treatment): 569
increased ON axon density ([3]; ONT/14 days treatment): 1.5X
Distat optic nerve: shrinkage of cross sectional area ([3]; ONT/14 days treatment): did not protect against shrinkage of the distal stump
Distat optic nerve myclin basic protein Density (myelin level) ([3]; ONT/14 days treatment, cross sectional area multiplied by myelin density): slightly increase the density of myelin
ON head area (% sham) ([3]; ONT/28 days treatment): 95%*
ON Axon density ([3]; ONT/28 days treatment): significant increase
increased ON axon density ([3]; ONT/28 days treatment): 5.0 X
Distat optic nerve: shrinkage of cross sectional area ([3]; ONT/28 days treatment): prevented cross sectional shrinkage
pattern of myelin degeneration, proximal stump (myelin basic protein immunohistochemistry) ([3]; first 14 days treatment): did not alter the pattern of myelin degeneration
pattern of myelin labeling and degenerating myelin figures, distal stump ([3]; first 14 days treatment): density of degenerating myelin figures remained high
pattern of myelin degeneration, proximal stump (myelin basic protein immunohistochemistry) ([3]; first 28 days treatment): dramatic preservation of the fascicular staining pattern
pattern of myelin labeling and degenerating myelin figures, distal stump ([3]; first 28 days treatment): dramatic protection of the fascicular pattern of myelin labeling
density of degenerating myelin figures in optic nerve [4]: dramatically decreased
difference between young and aged impaired treated groups during retention phase (aged mice; F1.69=3.09, P=0.08): no longer any statistically significant difference
spatial memory performance (swim distance, retention testing) (aged mice; aged impaired mice, retention testing after 3 weeks of dosing): significantly enhanced spatial memory performance
neuronal loss in the ONL (retina): did not appear to protect against neuronal loss
loss of neurons in the INL and GCL (retina; vs streptozotocin/vehicle controls): appeared to decrease the loss of neurons
preservation of axons in the proximal stump (RT97 neurofilament) (retinal ganglion cells): preserved the axons of virtually all protected neurons

O=C(SCCCc1ccccc1)C1CCCN1S(=O)(=O)Cc1ccccc1 (stereo not shown) [C]
RT97-RGC axon density 11 days after ON transection (36 ON axon rescued) [1]: 60.4% ±3.1% SEM
Ki (FKBP12; [6]): 107 nM
Clearance [2]: 31.1 µL/min

CCC(C)(C)NC(=O)N1CCCCC1C(=O)SCCCc1ccccc1 (stereo not shown) [Compound 11]
Ki (FKBP12; [5]): 51 to 200 nM

O=C(SCCCc1cccnc1)[C@@H]1CCCN1C(=S)NC1CCCCC1 [Compound 7, 3-(3-pyridyl)-1-propylmercaptyl 2S-1-[(cyclohexyl)thiocarbamoyl]-pyrrolidine-2-carboxylate]
Ki (FKBP12; [5]): 51 to 200 nM

O=C(SC(CCc1ccccc1)CCc1ccccc1)C1CCCCN1C(=S)NC1CCCCC1 (stereo not shown) [Compound 15]
Ki (FKBP12; [5]): 1 to 50 nM

CCC(C)(C)C(=O)C(=O)N1CCCC[C@H]1C(N)=O [H]
RT97-RGC axon density 11 days after ON transection (36 ON axon rescued) [1]: 30.3% ±8.0% SEM

CCC(C)CNC(=O)N1CCC[C@H]1C(=O)SCCCc1cccnc1 (stereo partly drawn) [Compound 1, 3-(3-Pyridyl)-1-propylmercaptyl 2S-1-[(2-methylbutyl)carbamoyl]pyrrolidine-2-carboxylate]
Ki (FKBP12; [5]): 1 to 50 nM

O=C(SCCCc1ccccc1)C1CCCCN1C(=O)Nc1ccccc1 (stereo not shown) [Compound 12]
Ki (FKBP12; [5]): 1 to 50 nM

CCC(C)(C)C(=O)C(=O)N1CCC[C@H]1C(=O)SCCC(c1ccccc1)c1ccccc1 [M]
RT97-RGC axon density 11 days after ON transection (36 ON axon rescued) [1]: −6.3% +3.9% SEM

CCC(C)(C)C(=O)C(=O)N1CCCC[C@H]1C(=O)SCCC(c1ccccc1)c1ccccc1 [K]
RT97-RGC axon density 11 days after ON transection (36 ON axon rescued) [1]: 13.0% ±4.2% SEM

O=C(OCCCCc1ccccc1)[C@@H]1CCCCN1S(=O)(=O)Cc1ccccc1 [D]
RT97-RGC axon density 11 days after ON transection (36 ON axon rescued) [1]: 58.4% ±6.4% SEM
